Assay: xn = mol fraction of the nth substance listed
Conditions: Fluid (supercritical or subcritical phases)

[N-]=[N+]=O [nitrous oxide] + FC(F)F
isochoric method
Conditions | molar volume [m3/mol]
253.03 K, 1464.8 kPa, x1 = 0.1116 | 0.001035
253.09 K, 1627.2 kPa, x1 = 0.4162 | 0.000978
258 K, 1541.9 kPa, x1 = 0.1116 | 0.001035
258.06 K, 1905.9 kPa, x1 = 0.563 | 0.000867
258.08 K, 1718.9 kPa, x1 = 0.4162 | 0.000978
258.09 K, 1832.3 kPa, x1 = 0.2888 | 0.000828
262.96 K, 1968.2 kPa, x1 = 0.563 | 0.000867
263.06 K, 1593.9 kPa, x1 = 0.1116 | 0.001035
263.06 K, 1774.4 kPa, x1 = 0.4162 | 0.000979
263.08 K, 1926.6 kPa, x1 = 0.2888 | 0.000829
267.94 K, 2030.3 kPa, x1 = 0.563 | 0.000867
268 K, 1644.1 kPa, x1 = 0.1116 | 0.001035
268.04 K, 1829.1 kPa, x1 = 0.4162 | 0.000979
268.04 K, 1991.7 kPa, x1 = 0.2888 | 0.000829
268.04 K, 2663.9 kPa, x1 = 0.6362 | 0.000591
272.9 K, 1693.3 kPa, x1 = 0.1116 | 0.001035
272.93 K, 2055.2 kPa, x1 = 0.2888 | 0.000829
272.95 K, 2091.7 kPa, x1 = 0.563 | 0.000867
273.02 K, 2765.9 kPa, x1 = 0.6362 | 0.000591
273.03 K, 1883 kPa, x1 = 0.4162 | 0.000979
282.83 K, 2180.4 kPa, x1 = 0.2888 | 0.000829
282.84 K, 1790.6 kPa, x1 = 0.1116 | 0.001036
283 K, 1988.8 kPa, x1 = 0.4162 | 0.000979
283 K, 2957.6 kPa, x1 = 0.6362 | 0.000591
283.02 K, 2213.7 kPa, x1 = 0.563 | 0.000868
292.93 K, 3143.3 kPa, x1 = 0.6362 | 0.000591
293.06 K, 1887.6 kPa, x1 = 0.1116 | 0.001036
293.07 K, 2332 kPa, x1 = 0.563 | 0.000868
293.08 K, 2094.2 kPa, x1 = 0.4162 | 0.00098
298.02 K, 3235.8 kPa, x1 = 0.6362 | 0.000591
298.05 K, 1934.6 kPa, x1 = 0.1116 | 0.001037
298.08 K, 2145.4 kPa, x1 = 0.4162 | 0.00098
298.09 K, 2390.3 kPa, x1 = 0.563 | 0.000868
298.1 K, 2367.2 kPa, x1 = 0.2888 | 0.00083
308.02 K, 2027.4 kPa, x1 = 0.1116 | 0.001037
308.05 K, 3416.1 kPa, x1 = 0.6362 | 0.000592
308.06 K, 2246.6 kPa, x1 = 0.4162 | 0.000981
308.08 K, 2486.6 kPa, x1 = 0.2888 | 0.00083
308.42 K, 2509 kPa, x1 = 0.563 | 0.000869
317.83 K, 2615.8 kPa, x1 = 0.563 | 0.000869
318.02 K, 2345.8 kPa, x1 = 0.4162 | 0.000981
318.02 K, 2603.8 kPa, x1 = 0.2888 | 0.000831
318.03 K, 3592.6 kPa, x1 = 0.6362 | 0.000592
318.11 K, 2119.5 kPa, x1 = 0.1116 | 0.001037
328.1 K, 2210.6 kPa, x1 = 0.1116 | 0.001038
328.1 K, 2731.1 kPa, x1 = 0.563 | 0.000869
328.11 K, 2445.5 kPa, x1 = 0.4162 | 0.000981
328.12 K, 3768.5 kPa, x1 = 0.6362 | 0.000592
328.13 K, 2721.6 kPa, x1 = 0.2888 | 0.000831
338.08 K, 2300.2 kPa, x1 = 0.1116 | 0.001038
338.08 K, 2543.3 kPa, x1 = 0.4162 | 0.000982
338.08 K, 2836.1 kPa, x1 = 0.2888 | 0.000831
338.09 K, 2842.1 kPa, x1 = 0.563 | 0.00087
338.09 K, 3939.9 kPa, x1 = 0.6362 | 0.000592
348.06 K, 2388.8 kPa, x1 = 0.1116 | 0.001039
348.06 K, 2949.9 kPa, x1 = 0.2888 | 0.000832
348.06 K, 2951.9 kPa, x1 = 0.563 | 0.00087
348.07 K, 2640.2 kPa, x1 = 0.4162 | 0.000982
348.07 K, 4110.3 kPa, x1 = 0.6362 | 0.000593
358.03 K, 2476.8 kPa, x1 = 0.1116 | 0.001039
358.03 K, 3062.3 kPa, x1 = 0.2888 | 0.000832
358.04 K, 2736.3 kPa, x1 = 0.4162 | 0.000983
358.05 K, 3061.1 kPa, x1 = 0.563 | 0.00087
358.05 K, 4278.2 kPa, x1 = 0.6362 | 0.000593

[N-]=[N+]=O [nitrous oxide] + FCF
Other PVT measurement
Conditions | molar volume [m3/mol]
283.32 K, 2978.6 kPa, x1 = 0.8042 | 0.000562
288.38 K, 3087.3 kPa, x1 = 0.8042 | 0.000562
293.46 K, 3188.3 kPa, x1 = 0.8042 | 0.000563
298.54 K, 2796 kPa, x1 = 0.5068 | 0.000644
298.6 K, 3286 kPa, x1 = 0.8042 | 0.000563
303.68 K, 2903.7 kPa, x1 = 0.5068 | 0.000644
303.68 K, 2988.3 kPa, x1 = 0.4207 | 0.000594
303.68 K, 3381.2 kPa, x1 = 0.8042 | 0.000563
308.76 K, 3475.8 kPa, x1 = 0.8042 | 0.000563
308.77 K, 2774.4 kPa, x1 = 0.2255 | 0.000631
308.77 K, 2991.7 kPa, x1 = 0.5068 | 0.000645
308.77 K, 3091.8 kPa, x1 = 0.4207 | 0.000594
313.85 K, 3190.6 kPa, x1 = 0.4207 | 0.000595
313.85 K, 3569.2 kPa, x1 = 0.8042 | 0.000563
313.86 K, 2875.7 kPa, x1 = 0.2255 | 0.000631
313.87 K, 3078.9 kPa, x1 = 0.5068 | 0.000645
318.94 K, 3288.2 kPa, x1 = 0.4207 | 0.000595
318.94 K, 3661.8 kPa, x1 = 0.8042 | 0.000563
318.95 K, 2971.2 kPa, x1 = 0.2255 | 0.000631
318.95 K, 3164.6 kPa, x1 = 0.5068 | 0.000645
324.03 K, 3384.5 kPa, x1 = 0.4207 | 0.000595
324.03 K, 3753.8 kPa, x1 = 0.8042 | 0.000563
324.04 K, 3064.8 kPa, x1 = 0.2255 | 0.000631
324.04 K, 3249.6 kPa, x1 = 0.5068 | 0.000645
329.13 K, 3157.2 kPa, x1 = 0.2255 | 0.000632
329.13 K, 3845.1 kPa, x1 = 0.8042 | 0.000563
329.14 K, 3334.1 kPa, x1 = 0.5068 | 0.000645
329.14 K, 3479.7 kPa, x1 = 0.4207 | 0.000595
334.22 K, 3248.1 kPa, x1 = 0.2255 | 0.000632
334.22 K, 3573.4 kPa, x1 = 0.4207 | 0.000595
334.23 K, 3417.4 kPa, x1 = 0.5068 | 0.000645
334.23 K, 3935.9 kPa, x1 = 0.8042 | 0.000564
339.33 K, 3338.3 kPa, x1 = 0.2255 | 0.000632
339.33 K, 3500 kPa, x1 = 0.5068 | 0.000645
339.34 K, 3666.5 kPa, x1 = 0.4207 | 0.000595
339.35 K, 4026.2 kPa, x1 = 0.8042 | 0.000564
344.43 K, 3581.9 kPa, x1 = 0.5068 | 0.000646
344.43 K, 3758.3 kPa, x1 = 0.4207 | 0.000595
344.43 K, 4115.4 kPa, x1 = 0.8042 | 0.000564
344.44 K, 3427.2 kPa, x1 = 0.2255 | 0.000632
353.6 K, 3922.3 kPa, x1 = 0.4207 | 0.000596
354.61 K, 3602.1 kPa, x1 = 0.2255 | 0.000632
354.62 K, 4293 kPa, x1 = 0.8042 | 0.000564

CF [fluoromethane] + [N-]=[N+]=O
Other PVT measurement
Conditions | molar volume [m3/mol]
263.02 K, 2088.5 kPa, x2 = 0.6161 | 0.000766
263.03 K, 1936.1 kPa, x2 = 0.508 | 0.000863
267.98 K, 1999.2 kPa, x2 = 0.508 | 0.000863
268 K, 2048.2 kPa, x2 = 0.3047 | 0.00074
268 K, 2223.9 kPa, x2 = 0.6161 | 0.000766
272.89 K, 2060.3 kPa, x2 = 0.508 | 0.000863
272.98 K, 2295.8 kPa, x2 = 0.6161 | 0.000766
273.01 K, 2223.5 kPa, x2 = 0.3047 | 0.000741
273.05 K, 1878.4 kPa, x2 = 0.1467 | 0.000909
277.86 K, 2121 kPa, x2 = 0.508 | 0.000863
282.81 K, 2371.8 kPa, x2 = 0.3047 | 0.000741
282.83 K, 1994.7 kPa, x2 = 0.1467 | 0.000909
283.04 K, 2438 kPa, x2 = 0.6161 | 0.000767
287.8 K, 4359.8 kPa, x2 = 0.8263 | 0.000305
288.08 K, 2242.8 kPa, x2 = 0.508 | 0.000864
292.79 K, 2109.4 kPa, x2 = 0.1467 | 0.00091
292.93 K, 4761.6 kPa, x2 = 0.8263 | 0.000305
292.96 K, 2512.2 kPa, x2 = 0.3047 | 0.000741
293.07 K, 2574.6 kPa, x2 = 0.6161 | 0.000767
298.08 K, 2168.4 kPa, x2 = 0.1467 | 0.00091
298.09 K, 2358.5 kPa, x2 = 0.508 | 0.000864
298.11 K, 2642.6 kPa, x2 = 0.6161 | 0.000767
298.17 K, 2591.9 kPa, x2 = 0.3047 | 0.000741
302.97 K, 5179 kPa, x2 = 0.8263 | 0.000305
307.96 K, 5380.9 kPa, x2 = 0.8263 | 0.000305
308.05 K, 2279.3 kPa, x2 = 0.1467 | 0.00091
308.06 K, 2474.5 kPa, x2 = 0.508 | 0.000865
308.13 K, 2731.2 kPa, x2 = 0.3047 | 0.000742
308.15 K, 2774.9 kPa, x2 = 0.6161 | 0.000768
312.91 K, 5577.9 kPa, x2 = 0.8263 | 0.000305
318.05 K, 2388.7 kPa, x2 = 0.1467 | 0.000911
318.11 K, 2867.7 kPa, x2 = 0.3047 | 0.000742
318.12 K, 2588.2 kPa, x2 = 0.508 | 0.000865
318.12 K, 2904.6 kPa, x2 = 0.6161 | 0.000768
328.03 K, 2496.3 kPa, x2 = 0.1467 | 0.000911
328.09 K, 3033 kPa, x2 = 0.6161 | 0.000768
328.1 K, 3002.9 kPa, x2 = 0.3047 | 0.000742
328.11 K, 2699.9 kPa, x2 = 0.508 | 0.000865
338.08 K, 2810.2 kPa, x2 = 0.508 | 0.000866
338.08 K, 3160 kPa, x2 = 0.6161 | 0.000769
338.09 K, 2603.1 kPa, x2 = 0.1467 | 0.000912
338.09 K, 3135.8 kPa, x2 = 0.3047 | 0.000743
347.94 K, 2707 kPa, x2 = 0.1467 | 0.000912
348.05 K, 3285.8 kPa, x2 = 0.6161 | 0.000769
348.06 K, 2919.8 kPa, x2 = 0.508 | 0.000866
348.06 K, 3267 kPa, x2 = 0.3047 | 0.000743
354.94 K, 2779.9 kPa, x2 = 0.1467 | 0.000912
358.03 K, 3396.5 kPa, x2 = 0.3047 | 0.000743
358.03 K, 3410.5 kPa, x2 = 0.6161 | 0.000769
358.05 K, 3028.8 kPa, x2 = 0.508 | 0.000867

— the NIST ThermoML archive (doi:10.1016/j.fluid.2004.11.021)
